Here are results for one molecule from PMC5041077, “Metabolic profile and safety of piperlongumine” (Scientific Reports, 2016).

Data set [1] addresses T1, CYP1A2 (Homo sapiens, UniProt P05177). The data set is described as follows: Inhibition of CYP1A2 by piperlongumine (dose-dependent, Ki). In kind it is in vitro ADME. The method, then:
In the assay of PPL inhibition in reversible manner, human liver microsomes (0.3 mg/mL final concentration) were the last reagent added into the incubation system to initiate the reaction; after 30 min the reaction was terminated by adding 2 mL of ethyl acetate. Caffeine (64 μM) was added as internal standard and samples were shaken for 10 min at 1500 rpm and centrifuged for 5 min at 2860x g. The organic layers (1.8 mL) were evaporated to dryness under a stream of compressed air at room temperature. The residues were dissolved in 80 μL of the mobile phase and injected in HPLC.
The kinetic parameters were calculated from nonlinear regression using GraphPad Prism Version 3.03 (San Diego, CA, USA). The Intrinsic Clearance (CLint) was obtained considering the Hill coefficient. The Unbounded Intrinsic Clearance (CLuint), Predicted in vivo Clearance (CL) and Hepatic Clearance (CLH) were determined according to Subramarian and Tracy[15] and Austin et al.[17]. Hepatic extraction ratio was calculated according to Kashuba et al.[21]. Dose-dependent inhibition parameters were determined employing SigmaPlot version 12.0 (Chicago, IL, USA). The Lineweaver-Burk plot was used to determine the inhibition profile. […] The parameters kinact and KI in time-dependent inhibition were calculated employing GraphPad Prism Version 3.03.

For data set [2], the target named is T1, CYP1A2. The data set is described as follows: NADPH-dependent inhibition study. In kind it is in vitro ADME. To be noted: PPL at 1/2 IC50, pre-incubation 0 and 30 min. The method, then: NADPH-dependent Inhibition. The mechanism-based inhibition is characterized by dose-, NADPH- and time-dependent cytochrome P450 oxidoreductase, so the NADPH dependence study was performed. […] NADPH regeneration system was added and the mixture was pre-incubated for 0 and 30 min. […] The mixture was incubated by 30 min and the reaction stopped as described previously. Controls without PPL were performed.

In data set [3] the target is CYP3A4 (Homo sapiens, UniProt P08684). Put plainly: biochemical.
Sequence of CYP3A4 (P08684 whole entry): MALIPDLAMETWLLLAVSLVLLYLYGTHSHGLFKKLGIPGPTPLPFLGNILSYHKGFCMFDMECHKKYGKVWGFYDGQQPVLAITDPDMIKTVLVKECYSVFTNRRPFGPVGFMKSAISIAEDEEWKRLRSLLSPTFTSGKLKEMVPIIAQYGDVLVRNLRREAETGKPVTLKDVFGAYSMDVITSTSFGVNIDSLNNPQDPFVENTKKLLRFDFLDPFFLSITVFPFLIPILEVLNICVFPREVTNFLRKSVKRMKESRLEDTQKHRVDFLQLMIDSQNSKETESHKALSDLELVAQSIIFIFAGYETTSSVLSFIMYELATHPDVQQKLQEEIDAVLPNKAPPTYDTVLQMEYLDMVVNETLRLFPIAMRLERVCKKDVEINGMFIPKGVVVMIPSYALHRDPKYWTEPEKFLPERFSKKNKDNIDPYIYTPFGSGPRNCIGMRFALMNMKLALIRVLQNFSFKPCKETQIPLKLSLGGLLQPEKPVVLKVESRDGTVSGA
For data set [4], the target named is CYP2D6 (Homo sapiens, UniProt P10635). Put plainly: biochemical.
Sequence of CYP2D6 (P10635 whole entry): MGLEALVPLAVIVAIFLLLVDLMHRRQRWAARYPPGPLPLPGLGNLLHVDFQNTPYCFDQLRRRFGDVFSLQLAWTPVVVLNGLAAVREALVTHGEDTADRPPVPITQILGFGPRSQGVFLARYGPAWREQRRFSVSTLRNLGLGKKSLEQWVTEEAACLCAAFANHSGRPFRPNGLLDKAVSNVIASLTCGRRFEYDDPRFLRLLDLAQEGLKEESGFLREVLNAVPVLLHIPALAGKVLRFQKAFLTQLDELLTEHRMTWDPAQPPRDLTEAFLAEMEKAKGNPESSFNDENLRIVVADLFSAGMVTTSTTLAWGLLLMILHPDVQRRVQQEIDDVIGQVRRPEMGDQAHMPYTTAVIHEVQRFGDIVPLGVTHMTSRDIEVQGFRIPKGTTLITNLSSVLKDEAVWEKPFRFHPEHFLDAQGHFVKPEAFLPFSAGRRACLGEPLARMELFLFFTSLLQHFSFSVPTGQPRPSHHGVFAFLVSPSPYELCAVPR
The subject of data set [5] is human liver microsomes. The data set is described as follows: In vitro kinetic study of PPL metabolism (substrate depletion) in human liver microsomes. In kind it is in vitro ADME. As for the experimental part:
The in vitro kinetic study was performed setting the incubation conditions through the maintenance of initial velocity (V0); 0.45 mg/mL microsomal protein and 16 min time incubation were selected and the substrate concentration was ranged from 0.38 to 283.6 μM. The substrate depletion was quantified employing an analytical validated method (Tables S1, S2 and S3 and Fig. S1-Supplementary Information).
The metabolism was evaluated by measuring the rate of disappearance of the PPL peak. The incubations were performed in triplicate using 10 mL amber tubes. The metabolism medium consisted of substrate, a NADPH regeneration system solution A (1.3 mM NADP^+ and 3.3 mM glucose-6-phosphate), a NADPH regeneration system solution B (0.4 U/mL glucose-6-phosphate dehydrogenase), HLM and a potassium phosphate buffer pH 7.4 (100 mM) in a total volume of 200 μL. This microsomal medium was incubated in a shaking water bath at 37 °C. After pre-warming for 5 min at 37 °C to favor the formation of NADPH from the solutions A and B, the reaction was initiated by the addition of the HLM. To determine the enzymatic kinetic parameters, the linear conditions for microsomal protein concentration and for incubation time were optimized. The microsomal protein concentration was evaluated from 0.1 to 1.5 mg of protein per mL (n = 3), and the incubation time was varied from 0 to 40 min (n = 3). The linear range was obtained from these parameters and used to perform the substrate variation concentration at V0 conditions. The reactions were stopped by the addition of 200 μL of cold acetonitrile, gently agitated for 20 s and then centrifuged for 5 min at 2860x g. Finally, aliquots of the supernatant were removed and injected into the chromatographic system. Control incubations were performed in the absence of the cofactor solution and in the absence of the HLM. The difference between ‘with’ and ‘without’ NADPH was attributed to CYP450-mediated metabolism.
(§1) The kinetic parameters were calculated from nonlinear regression using GraphPad Prism Version 3.03 (San Diego, CA, USA). The Intrinsic Clearance (CLint) was obtained considering the Hill coefficient. The Unbounded Intrinsic Clearance (CLuint), Predicted in vivo Clearance (CL) and Hepatic Clearance (CLH) were determined according to Subramarian and Tracy[15] and Austin et al.[17]. Hepatic extraction ratio was calculated according to Kashuba et al.[21]. Dose-dependent inhibition parameters were determined employing SigmaPlot version 12.0 (Chicago, IL, USA). The Lineweaver-Burk plot was used to determine the inhibition profile. The second plot of slopes from Lineweaver-Burk plot versus PPL concentrations was utilized to calculate the Ki. The parameters kinact and KI in time-dependent inhibition were calculated employing GraphPad Prism Version 3.03.

Data set [6] in a line: Predicted in vivo parameters (in vitro-in vivo scaling). In kind it is in vitro ADME, human. The method, then: In vitro-in vivo scaling has been proposed by some authors. […] PPL microsome and plasma bindings were 23% and 93%, respectively. The predicted parameters, Intrinsic Clearance (CLint), Unbounded Intrinsic Clearance (CLuint), Predicted in vivo Clearance (CL), Hepatic Clearance (CLH) and Hepatic Extraction Ratio (E), are expressed in Table 1.
as §1

Data set [7] addresses CYP2C9 (Homo sapiens, UniProt P11712). The data set is described as follows: IC50 assay, diclofenac 4'-hydroxylation in HLM.
The nature of data set [8]: Piperlongumine plasma protein binding (ultrafiltration). In kind it is in vitro ADME. The method, then:
Piperlongumine-protein binding. An in vitro study with a microsomal and plasma protein was carried out using a concentration of PPL approximately corresponding to its S50 (n = 3). The plasma protein binding was evaluated to predict the in vivo clearance, using a plasma protein concentration of 42 mg/mL. The samples were incubated with pooled human liver microsomes at 37 °C as described in section above. The same V0 conditions obtained (protein concentration and incubation time) were applied in this study, but in the absence of the cofactor NADPH. Furthermore, a control sample without protein was analyzed simultaneously for comparison purposes. These mixtures were added to the centrifugal filter device (Microcon YM-30, 30,000 molecular weight cut-off; Millipore Corporation, Bedford, MA, USA) and centrifuged at 21800 x g for 30 min at 37 °C (Hitachi CF16RXII, Himac, Tokyo, Japan). The ultra-filtrate was directly assayed by high-performance liquid chromatography at the conditions previously described.

The target of data set [9] is T1, CYP1A2. Put plainly: Mechanism-based (time-dependent) inhibition of CYP1A2 by piperlongumine. In kind it is in vitro ADME. Further details: kinact: dose or concentration left out as unconfirmed. To be noted: human liver microsomes, pH 7.4, probe phenacetin […] µM. As for the experimental part:
Reactions were terminated as described above.
as §1

For data set [10], the target named is T1, CYP1A2. The data set is described as follows: IC50 assay, phenacetin O-deethylation in HLM.

Some results are limits rather than exact numbers.

T1 sequence (P05177 whole entry): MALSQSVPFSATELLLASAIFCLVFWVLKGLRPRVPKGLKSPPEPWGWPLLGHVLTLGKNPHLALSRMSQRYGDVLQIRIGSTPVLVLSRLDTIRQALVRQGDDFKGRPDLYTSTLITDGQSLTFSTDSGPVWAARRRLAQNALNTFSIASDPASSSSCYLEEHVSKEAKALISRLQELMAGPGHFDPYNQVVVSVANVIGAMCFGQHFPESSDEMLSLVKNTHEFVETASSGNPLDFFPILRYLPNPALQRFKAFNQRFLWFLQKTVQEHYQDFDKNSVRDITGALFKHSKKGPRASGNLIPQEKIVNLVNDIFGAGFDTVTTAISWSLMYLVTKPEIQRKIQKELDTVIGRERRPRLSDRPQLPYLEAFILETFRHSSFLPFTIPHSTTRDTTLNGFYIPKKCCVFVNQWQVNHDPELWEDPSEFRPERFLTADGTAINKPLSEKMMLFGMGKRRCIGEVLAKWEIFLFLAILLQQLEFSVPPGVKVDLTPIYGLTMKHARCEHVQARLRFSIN
Sequence of CYP2C9 (P11712 whole entry): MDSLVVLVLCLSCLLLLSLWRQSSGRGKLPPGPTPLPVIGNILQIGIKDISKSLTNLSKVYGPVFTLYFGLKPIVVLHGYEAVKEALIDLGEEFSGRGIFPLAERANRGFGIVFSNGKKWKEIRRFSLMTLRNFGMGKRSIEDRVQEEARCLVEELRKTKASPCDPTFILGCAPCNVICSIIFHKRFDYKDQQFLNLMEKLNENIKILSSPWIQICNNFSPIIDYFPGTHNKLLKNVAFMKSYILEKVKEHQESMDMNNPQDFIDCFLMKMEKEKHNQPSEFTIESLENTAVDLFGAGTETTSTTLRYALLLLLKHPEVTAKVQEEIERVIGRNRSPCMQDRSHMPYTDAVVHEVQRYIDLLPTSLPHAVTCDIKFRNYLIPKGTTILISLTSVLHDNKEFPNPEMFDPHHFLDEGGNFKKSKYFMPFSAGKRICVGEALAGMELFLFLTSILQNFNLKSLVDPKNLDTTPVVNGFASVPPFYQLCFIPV

`COc1cc(/C=C/C(=O)N2CCC=CC2=O)cc(OC)c1OC` [PPL, Piperlongumine] had a Ki in data set [1] of 1500 nM. Further, the mode of inhibition entry in [1] (Lineweaver-Burk plot) is reported as “competitive type”. Besides, in data set [2], the “NADPH dependence of CYP oxidative inhibition” value is on record as “NADPH-dependent”. The 50% inhibitory concentration (IC50) is above 100 µM in [3], above 100 µM in data set [4], above 100 µM in [7] and 7.2 µM in [10]. The molecule also showed a Hill coefficient in data set [5] (HLM 0.45 mg/mL, 16 min) of 3.0. The molecule further gave an S50 in data set [5] (HLM 0.45 mg/mL, 16 min, sigmoidal profile) of 127.7 µM. Besides, the Vmax in [5] (HLM 0.45 mg/mL, 16 min, substrate 0.38 to 283.6 μM, sigmoidal profile) came to 5.5 ± 0.5 nmol/mg protein/min. Moreover, the “S50 in human relative to the value observed in rats” value in [5] (human vs rat liver microsomes, rat value ref 19) turned out to be 2.7 times. Further, the “Hepatic Extraction (E)” value in [6] was 0.09. The “Predicted in Vivo Clearance (CL)” value in [6] (40 mg microsomes/g liver, 20 g liver/kg body weight) was 19.79 mL/min/kg. Also, the “Unbounded Intrinsic Clearance (CLuint)” value in [6] (corrected for fumic) was 29.84 µL/min/mg. Besides, in data set [6] (from HLM kinetic data considering the Hill coefficient), the “Intrinsic Clearance (CLint)” value is 22.68 µL/min/mg. For the same molecule, the “Hepatic Clearance (CLH)” value in [6] (liver blood flow 20 mL/min/kg) is 1.89 mL/min/kg. The molecule further returned a plasma binding in data set [8] (PPL approx. S50, plasma protein 42 mg/mL) of 93%. Further, the fraction unbound at 16 min, 127.7 μM in data set [8] (plasma protein (42 mg/mL), PPL 127.70 μM, read-out: fuplasma (free fraction of the compound in plasma)) was 0.07. For the same molecule, the kinact in [9] was 0.000233 s⁻¹. Further, the KI (inactivation) in data set [9] (read-out: KI (inactivation parameter)) was 8 µM.
